Assay: Raw material test against sweat odour (masking of malodour standard, assessor panel)
Conditions: not given
With `CC1CC(C)(c2ccccc2)OC(C)O1` (stereo not drawn) [reference compound] the Increase in intensity was −0.7 and the Malodour reduction value was 1.1.

Same assay, conditions: Table 1; 1 μl fragrance + 5 μl 3-mercapto-3-methyl-hexan-1-ol (0.1% in DPG) in 7 l air, 15 h at approx. 20° C.; scale 1 to 9, malodour standard mixture = 6; mean of at least 8 assessors
In the case of `CC(C)c1ccc(CC=O)cc1` [4-(1-METHYLETHYL)-PHENYL ACETALDEHYDE], the “Increase In intensity” value was 1.7 and the Odour reduction value was 3.8.
In the case of `CC1OC(C)C2Cc3ccccc3C2O1` (stereo not drawn), the “Increase In intensity” value was 1.1 and the Odour reduction value was 4.1.
With `COCc1ccc(O)c(OC)c1` [2-METHOXY-4-METHOXYMETHYL-PHENOL] the “Increase In intensity” value was −0.1 and the Odour reduction value was 4.1.
With `CC(C)=CCC(C)(C)C(=O)C(C)C` the “Increase In intensity” value was 1.0 and the Odour reduction value was 3.3.
In the case of `CC(=O)c1cc2ccccc2o1` [2-ACETYLBENZOFURAN], the “Increase In intensity” value was 1.2 and the Odour reduction value was 3.3.
For `COC(=O)c1ccccc1N=CC(C)Cc1ccc(C(C)(C)C)cc1` (stereo not drawn) [2-[[3-[4-1 1-DIMETHYLETHYL)PHENYL)-2-METHYLPROPLIDEN]AMINO]-BENZOIC ACID METHYL ESTER], the “Increase In intensity” value was −0.4 and the Odour reduction value was 3.3.
With `C=CC(C)(C#N)Cc1ccccc1` (stereo not drawn) [ALPHA-ETHENYL-ALPHA-METHYL-BENZENE PROPANE NITRILE] the “Increase In intensity” value was 1.0 and the Odour reduction value was 4.2.
For `CCCCCC1COCCC1OC(C)=O` (stereo not drawn) [TETRAHYDRO-3-PENTYL-PYRAN-4-OL ACETATE], the “Increase In intensity” value was 1.5 and the Odour reduction value was 4.5.
With `CC(C)=CCC(C)(C)C1OCC=CCO1` the “Increase In intensity” value was 0.0 and the Odour reduction value was 3.7.
For `CCCCCC1CCC(=O)O1` (stereo not drawn) [5-PENTYLDIHYDROFURAN-2-ONE], the “Increase In intensity” value was −0.8 and the Odour reduction value was 4.1.
In the case of `CCC(O)CC[C@H]1[C@@H](C)CCCC1(C)C` (relative stereo), the “Increase In intensity” value was 0.8 and the Odour reduction value was 3.1.
With `CCCC(=O)C(CC)Cc1ccccc1` (stereo not drawn) the “Increase In intensity” value was 0.1 and the Odour reduction value was 4.6.
For `CC(=CO)CCC1CC=C(C)C1(C)C` (stereo not drawn), the “Increase In intensity” value was 0.3 and the Odour reduction value was 3.8>.
With `CC(C)=CCOC(=O)c1ccccc1O` [SALICYLIC ACID PRENYL ESTER] the “Increase In intensity” value was 0.2 and the Odour reduction value was 3.6.
For `CC(CC#N)CCc1ccccc1` (stereo not drawn) [2-METHYL-4-PHENYL BUTYL CYANIDE], the “Increase In intensity” value was 0.2 and the Odour reduction value was 5.3.
In the case of `CC(CO)CCCc1ccccc1` (stereo not drawn) [2-METHYL-5-PHENYL PENTANOL], the “Increase In intensity” value was −0.5 and the Odour reduction value was 5.1.
In the case of `CCCCCCOC(=O)c1ccccc1O` [SALICYLIC ACID HEXYL ESTER], the “Increase In intensity” value was 1.7 and the Odour reduction value was 3.7.
With `CC(=O)C(C)=CC1C(C)=CCCC1(C)C` (stereo not drawn) the “Increase In intensity” value was −0.7 and the Odour reduction value was 5.1.
With `CCCCCCO` [1-HEXANOL] the “Increase In intensity” value was 1.6 and the Odour reduction value was 3.6.
In the case of `O=Cc1ccc2c(c1)OCO2` [3,4-METHYLENDIOXYBENZALDEHYDE], the “Increase In intensity” value was −1.2 and the Odour reduction value was 3.7.
With `CC(=O)OCCc1ccccc1` [ACETIC ACID-2-PHENYLETHYL ESTER] the “Increase In intensity” value was 1.0 and the Odour reduction value was 4.0.
In the case of `CCOC(C=C(C)CCC=C(C)C)OCC`, the “Increase In intensity” value was −0.7 and the Odour reduction value was 4.3.
In the case of `CC(=O)OC(C)c1ccccc1` (stereo not drawn) [ACETIC ACID-1-PHENYLETHYL ESTER], the “Increase In intensity” value was −0.4 and the Odour reduction value was 4.0.
With `CC(C)=CCCC(C)CC#N` (stereo not drawn) [3,7-DIMETHYL-6-OCTENE NITRILE] the “Increase In intensity” value was 0.5 and the Odour reduction value was 4.5.
For `CCCCCCCCCC=O` [DECANAL], the “Increase In intensity” value was 0.2 and the Odour reduction value was 3.0.
With `CC(=O)C1(C)CC2=C(CCCC2(C)C)CC1C` (stereo not drawn) the “Increase In intensity” value was 0.2 and the Odour reduction value was 3.4.
With `CC(=O)C(C)=C(C)C(C)C(C)(C)C` (stereo not drawn) the “Increase In intensity” value was 1.6 and the Odour reduction value was 3.2.
In the case of `CC(C)COC(=O)C=Cc1ccccc1` [ISOBUTYL CINNAMATE], the “Increase In intensity” value was 0.8 and the Odour reduction value was 3.1.
For `CCCCC1COCC(C)C1OC(C)=O` (stereo not drawn) [3-BUTYL-TETRAHYDRO-5-METHYL-PYRAN-4-OL ACETATE], the “Increase In intensity” value was 1.0 and the Odour reduction value was 3.0.
In the case of `CC=CC(=O)C1C(C)=CCCC1(C)C` (stereo in doubt) [ALPHA-DAMASCONE], the “Increase In intensity” value was −2.0 and the Odour reduction value was 4.1.
In the case of `C/C=C/C(=O)C1CCC(C)(C)C=C1C` (stereo not drawn), the “Increase In intensity” value was 1.0 and the Odour reduction value was 5.0.
In the case of `C=CCOC(=O)COC1CCCCC1` [(CYCLOHEXYLOXY)-ACETIC ACID-2-PROPENYL ESTER], the “Increase In intensity” value was −0.5 and the Odour reduction value was 4.3.
With `Cc1cccc(CC(C)(C)CO)c1` the “Increase In intensity” value was 1.2 and the Odour reduction value was 4.4.
In the case of `CC(C)=CCCC(C)=CCCC(C)C=O` (stereo not drawn), the “Increase In intensity” value was 0.2 and the Odour reduction value was 3.8.
With `C=CC(C)(O)CCC=C(C)CC` (stereo not drawn) the “Increase In intensity” value was 1.0 and the Odour reduction value was 3.1.
In the case of `CCC/C=C/C=O` [(E)-2-HEXENAL], the “Increase In intensity” value was −0.2 and the Odour reduction value was 3.1.
In the case of `O=C1CCCCCCCCC/C=C/CCCO1`, the “Increase In intensity” value was 0.0 and the Odour reduction value was 4.0.
For `CC/C=C/CCOC(C)=O` [ACETIC ACID-3(E)-HEXENYL ESTER], the “Increase In intensity” value was 1.3 and the Odour reduction value was 3.1.
For `CC1COCc2cc3c(cc21)C(C)(C)C(C)C3(C)C` (stereo not drawn), the “Increase In intensity” value was −2.3 and the Odour reduction value was 4.3.
With `CCCC1CCOC(C)S1` (stereo not drawn) [(Z)-2-METHYL-4-PROPYL-1,3-OXATHIANE] the “Increase In intensity” value was 0.0 and the Odour reduction value was 3.1.
In the case of `CCCCCCCCCC/C=C\C#N` [(Z)-2-TRIDECENE NITRILE], the “Increase In intensity” value was 1.6 and the Odour reduction value was 3.8.
For `O=C1CCCCCC/C=C/CCCCCCC1` [(E)-8-CYCLOHEXADECEN-1-ONE], the “Increase In intensity” value was 0.2 and the Odour reduction value was 4.0.

Same assay, conditions: Table 2 (raw materials without adequate malodour-reducing action); 1 μl fragrance + 5 μl 3-mercapto-3-methyl-hexan-1-ol (0.1% in DPG) in 7 l air, 15 h; scale 1 to 9, standard = 6
Work on `CCCCCC1COCCC1OC(C)=O` (stereo not drawn) [TETRAHYDRO-3-PENTYL-PYRAN-4-OL ACETATE] yielded an Increase in intensity of 1.0 and a Malodour reduction value of 2.0.
Work on `CC=Cc1ccc(OC)cc1` [1-METHOXY-4-PROPENYL BENZENE, reference compound] yielded an Increase in intensity of 2.0 and a Malodour reduction value of 2.0.
In the case of `CCCCCCCCCCCC=O` [DODECANAL, reference compound], the Increase in intensity was 2.0 and the Malodour reduction value was 2.0.
`COc1cc(C=O)ccc1O` [VANILLIN, reference compound] showed an Increase in intensity of 1.0 and a Malodour reduction value of 0.0.

Same assay, conditions: Table 3 (adequate malodour-reducing action but significant increase in intensity); 1 μl fragrance + 5 μl 3-mercapto-3-methyl-hexan-1-ol (0.1% in DPG) in 7 l air, 15 h; scale 1 to 9, standard = 6
Work on `CC(=O)OC1CC(C)CCC1C(C)C` (stereo not drawn) [MENTHYL ACETATE, reference compound] yielded an Increase in intensity of 2.9 and a Malodour-reduction value of 4.4.
Work on `CC(C)CCCC(C)CCO` (stereo not drawn) [3,7-DIMETHYL OCTANOL, reference compound] yielded an Increase in intensity of 2.2 and a Malodour-reduction value of 4.0.
For `CC12CCC(CC1)C(C)(C)O2` [1,8-CINEOL, reference compound], the Increase in intensity was 2.4 and the Malodour-reduction value was 5.1.
Compound `CCC(C)CCCC(C)(C)O` (stereo not drawn) [TETRAHYDROMYRCENOL, reference compound] has an Increase in intensity of 2.2 and a Malodour-reduction value of 4.0.
For `CCCCCOC(=O)c1ccccc1O` [AMYL SALICYLATE, reference compound], the Increase in intensity was 2.4 and the Malodour-reduction value was 3.6.
`CC(=O)/C(C)=C/C1C(C)=CCCC1(C)C` (stereo not drawn) [GAMMA-METHYLICONE, reference compound] gave an Increase in intensity of 2.1 and a Malodour-reduction value of 4.0.

Same assay, conditions: prior-art fragrances examined by the applicant
For `CC(C)CCCC(C)CCO` (stereo not drawn) [3,7-DIMETHYL OCTANOL, reference compound], the “intrinsic odour / perfumistic impression (in words)” value was “strong perfumistic impression” and the “reduction in the bad odour based on 3-mercapto-3-methyl-hexan-1-ol (in words)” value was “leads to a malodour reduction”.
